Patent publication US20230218639A1, “USE OF OXYGENATED CHOLESTEROL SULFATES FOR TREATING NEUROLOGICAL CONDITIONS, NEURODEGENERATIVE DISEASES, AND ADDICTION” (Durect Corporation, priority 2020, published 2023)

How the values were obtained:
[1] = Excretion mass balance, single intravenous dose; format: in vivo, Sprague Dawley rats; settings: intravenous 10 mg/kg, over 168 hours
Method: (§1) Nine male Sprague Dawley rats (Group 1) were designated for the pharmacokinetic phase, 3 male Sprague Dawley rats (Group 2) for the excretion mass balance phase, and 7 male Sprague Dawley rats (Group 3) and 9 male Long Evans rats (Group 4) for the tissue distribution phase. All animals received a single intravenous dose of [^14C]-25HC3S at 10 mg/kg and a target radioactivity of 225 μCi/kg. Blood samples were collected from all Group 1 animals at approximately 0.083, 0.25, 0.5, 1, 2, 4, 8, 12, 24, 48, and 72 hours post-dose. Urine and feces were collected from all Group 2 animals periodically through 168 hours post-dose. […] Following blood collection, animals were euthanized by CO2 inhalation and carcasses frozen in a dry ice/hexane bath for processing by quantitative whole body autoradiography. Whole blood, plasma, urine, feces, cage rinse, and cage wash were analyzed for total radioactivity by liquid scintillation counting.

DNMT3a = DNMT3a (Homo sapiens, UniProt Q9Y6K1); experiment: DNMT3a activity assay (Lambda DNA substrate, ^3H-SAM); format: biochemical; settings: read-out: IC50, DNMT3a activity
Method: (§2) For the DNMT1 activity assay, the substrate solution, 0.001 mg/ml Poly(dI-dC):Poly(dI-dC) in 50 mM Tris-HCl, pH 7.5, 50 mM NaCl, 5 mM EDTA, 5 mM DTT, 1 mM PMSF, 5% glycerol, 0.01% Brij35, 1% DMSO was used. For the DNMT3a/3b activity assay, 0.0075 mg/ml Lambda DNA in 50 mM Tris-HCl, pH 7.5, 50 mM NaCl, 5 mM EDTA, 5 mM DTT, 1 mM PMSF, 5% glycerol, 1% DMSO, was used. The indicated DNMT1, DNMT3a, or DNMT3b was added to the appropriate substrate solution and gently mixed. […] The mixtures were first incubated for 15 min, then ^3H-SAM was added to the reaction mixture to initiate the reaction, and the mixture was incubated for 60 min at 30° C. Following incubation, the reaction mixture was finally transferred to filter-paper for detection of radioactivity counts.

DNMT3b = DNMT3b (Homo sapiens, UniProt Q9UBC3); experiment: DNMT3b activity assay (Lambda DNA substrate, ^3H-SAM); format: biochemical; settings: read-out: IC50, DNMT3b activity
Method: as §2

[2] = Metabolite profiling of plasma, urine, feces, intravenous dose; format: in vivo, Sprague Dawley rats; settings: intravenous 10 mg/kg
Method: as §1

[3] = tested on: CpG sites in promoter regions of LINE-1 element, Huh-7 cells; experiment: LINE-1 global methylation assay; format: cell-based, human; settings: Huh-7 cells in HG media, 25HC3S for 4 hours
Method: Each sample, 2 μg, was sent to […], Inc. (Hopkinton, Mass.) for analysis of global methylation bisulfite sequencing. The same samples, 6 μg, were sent to Novogene Co., Ltd (Tianjin, China) for analysis of whole genome bisulfite sequencing (WGBS). Total RNA was isolated using the Promega SV total RNA isolation system (Madison, Wis.) with DNase treatment. […] Real-time RT-PCR was performed using SYBR Green as the indicator on ABI 7500 Fast Real-Time PCR System (Applied Biosystems, Foster City, Calif.). Amplifications of β-actin or GAPDH were used as internal controls. Relative messenger RNA (mRNA) expression was quantified with the comparative cycle threshold (Ct) method using the primer set shown in Table 1.1 and was expressed as 2^-ΔΔCt. […] PCR reaction and product purification were performed as per the manufacturer's protocol (GE Healthcare Life Sciences). The PCR products, 10 μl, were sequenced by Pyrosequencing on the PSQ96 HS System following the manufacturer's instructions (Pyrosequencing, Qiagen). The methylation status of each CpG site was determined individually as an artificial C/T SNP using QCpG software (Pyrosequencing, Qiagen). The methylation level at each CpG site was calculated as the percentage of the methylated alleles divided by the sum of all methylated and unmethylated alleles. The mean methylation level was calculated using methylation levels of all measured CpG sites within the targeted region of each gene. Each experiment included non-CpG cytosines as internal controls to detect incomplete bisulfite conversion of the input DNA. In addition, a series of unmethylated and methylated DNA were included as controls in each PCR assay. Furthermore, PCR bias testing was performed by mixing unmethylated control DNA with in vitro methylated DNA at different ratios (0%, 5%, 10%, 25%, 50%, 75%, and 100%), followed by bisulfite modification, PCR, and Pyro-sequencing analysis.

DNMT3a, sequence (Q9Y6K1 whole entry, looked up): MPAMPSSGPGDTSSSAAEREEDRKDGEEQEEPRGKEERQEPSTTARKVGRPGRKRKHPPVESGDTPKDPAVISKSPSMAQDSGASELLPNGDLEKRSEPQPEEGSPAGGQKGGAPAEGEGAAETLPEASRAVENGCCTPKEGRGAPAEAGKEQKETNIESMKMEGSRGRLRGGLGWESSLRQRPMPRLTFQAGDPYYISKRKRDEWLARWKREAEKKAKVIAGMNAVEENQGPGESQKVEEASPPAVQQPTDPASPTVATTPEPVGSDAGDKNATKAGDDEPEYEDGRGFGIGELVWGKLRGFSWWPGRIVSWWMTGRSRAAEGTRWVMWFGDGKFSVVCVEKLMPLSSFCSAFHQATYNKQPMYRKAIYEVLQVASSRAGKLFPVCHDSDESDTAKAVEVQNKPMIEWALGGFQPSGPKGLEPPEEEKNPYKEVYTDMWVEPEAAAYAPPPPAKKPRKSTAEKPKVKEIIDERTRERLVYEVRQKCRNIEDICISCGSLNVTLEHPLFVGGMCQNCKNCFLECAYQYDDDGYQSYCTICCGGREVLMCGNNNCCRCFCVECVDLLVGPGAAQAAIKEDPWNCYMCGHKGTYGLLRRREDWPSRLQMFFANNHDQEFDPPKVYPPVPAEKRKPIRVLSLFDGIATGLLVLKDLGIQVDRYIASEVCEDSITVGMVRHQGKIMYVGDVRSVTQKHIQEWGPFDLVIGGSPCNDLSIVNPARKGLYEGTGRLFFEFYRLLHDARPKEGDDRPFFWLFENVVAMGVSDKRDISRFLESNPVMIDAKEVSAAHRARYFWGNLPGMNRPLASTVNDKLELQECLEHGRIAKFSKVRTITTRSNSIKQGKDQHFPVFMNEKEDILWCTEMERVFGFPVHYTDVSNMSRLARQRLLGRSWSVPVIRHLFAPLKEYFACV

C[C@H](CCCC(C)(C)O)[C@H]1CC[C@H]2[C@@H]3CC=C4C[C@@H](OS(=O)(=O)O)CC[C@]4(C)[C@H]3CC[C@]12C [25HC3S, 5-Cholesten-3β, 25-diol 3-sulfate]
dose recovered in urine, feces, and cage rinse [1]: approximately 100.2%
recovered radioactivity in feces [1]: 83.0%
IC50 (DNMT3a): 3.03 µM
IC50 (DNMT3b): 9.05 µM
% of dose in feces ([2]; 0 to 48 hours post-dose): 2 % of dose
share of exposure (AUC) to 25HC3S related radioactivity in plasma ([2]; up to 1 hour post-dose): approximately 54%
Reduction of methylation (demethylation) at Pos1 of LINE-1 [3]: −5%
Reduction of methylation (demethylation) at Pos3 of LINE-1 [3]: −10%
Reduction of methylation (demethylation) at Pos 4 of LINE-1 [3]: −5.6%
